# Measurements: patent US5622948A, “Pyrrole pyridazine and pyridazinone anti-inflammatory agents” (Syntex (U.S.A.) Inc., priority 1994, dated 1997)
# Tests used:
# [1] = target: COX I (Homo sapiens, UniProt P23219); assay: radiometric assay, COX I inhibition (human recombinant, baculovirus expressed, partially purified); type: biochemical; set-up: A 2 Kb fragment containing the coding region of COX I; made in house; host or cells: Sf9 insect cells, baculovirus (cDNA from Oxford Biomedical Research); conditions: radiometric assay, human recombinant baculovirus expressed enzyme; read-out: COX I IC50 (Table 2)
# Sequence of COX I (P23219 24-599): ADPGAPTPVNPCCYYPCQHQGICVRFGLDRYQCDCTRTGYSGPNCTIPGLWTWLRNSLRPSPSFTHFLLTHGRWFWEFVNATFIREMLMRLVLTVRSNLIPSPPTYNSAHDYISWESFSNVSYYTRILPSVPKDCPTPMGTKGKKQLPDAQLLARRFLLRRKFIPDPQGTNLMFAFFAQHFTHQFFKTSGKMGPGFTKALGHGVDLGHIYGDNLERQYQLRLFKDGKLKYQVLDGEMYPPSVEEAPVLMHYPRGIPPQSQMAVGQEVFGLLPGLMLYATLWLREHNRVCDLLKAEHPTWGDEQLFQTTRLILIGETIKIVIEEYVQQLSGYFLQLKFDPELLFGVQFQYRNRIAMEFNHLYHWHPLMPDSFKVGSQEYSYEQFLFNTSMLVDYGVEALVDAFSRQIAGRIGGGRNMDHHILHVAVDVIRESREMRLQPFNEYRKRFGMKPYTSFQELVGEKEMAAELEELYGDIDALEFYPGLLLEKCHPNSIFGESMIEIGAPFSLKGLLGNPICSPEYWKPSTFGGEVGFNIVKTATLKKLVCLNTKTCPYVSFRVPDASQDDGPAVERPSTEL
# Procedure: (§1) Human prostaglandin G/H synthase I and II ("COX I" and "COX II") were expressed in the baculovirus expression system and purified to high levels.
# (§2) As described above, human recombinant COX I and COX II were cloned and expressed in a baculovirus system. Partially purified COX I and COX II enzymes were used for screening compounds for their ability to inhibit COX I and COX II activity, as described below.
# (§3) Compound (16), in 2 μl DMSO, and control samples (carrier vehicles only) were mixed with COX I or COX II samples (e.g. fractions from the chromatography columns) in polypropylene tubes and preincubated with 2 mM phenol for 5 minutes and then with 1 μM hematin for an additional 5 minutes. The 150 μl reaction mixture consisted of 50 mM Tris --HCl, pH 7.9, 2 mM EDTA, 10% glycerol, 200 μM phenol, 1 μM hematin, 1-25 μl sample and 20 μM 1-[^14 C] arachidonate (80.000-100.000 cpm/tube). After 45 seconds at room temperature, the reaction was terminated by adding 200 μl of 2N HCl and 750 μl water. An aliquot (950 μl) of the reaction mixture was loaded onto a 1 ml C~ Sep-Pak (J. T. Baker, Phillipsburg, N.J.) which had been previously washed with 2-3 ml methanol and equilibrated with 5-6 ml distilled water. Oxygenated products were quantitatively eluted with 3 ml of acetonitrile, H2 O and acetic acid (50:50:0.1, v/v) and the radioactivity in the eluate determined in a scintillation counter.
# (§4) Human recombinant 10 min incubation with Compound (16)
# (§5) baculovirus 45 sec incubation with 20 μM AA
# (§6) partially purified Separation of radioactive products
# [2] = target: T1, COX II (Homo sapiens, UniProt P35354); assay: radiometric assay, COX II inhibition (human recombinant, baculovirus expressed, partially purified); type: biochemical; set-up: A 1.8 Kb DNA fragment containing the coding region of human COX II was generated by PCR; made in house; host or cells: Sf9 insect cells, baculovirus; conditions: radiometric assay, human recombinant baculovirus expressed enzyme; read-out: COX II IC50 (Table 2)
# T1 sequence (P35354 18-604): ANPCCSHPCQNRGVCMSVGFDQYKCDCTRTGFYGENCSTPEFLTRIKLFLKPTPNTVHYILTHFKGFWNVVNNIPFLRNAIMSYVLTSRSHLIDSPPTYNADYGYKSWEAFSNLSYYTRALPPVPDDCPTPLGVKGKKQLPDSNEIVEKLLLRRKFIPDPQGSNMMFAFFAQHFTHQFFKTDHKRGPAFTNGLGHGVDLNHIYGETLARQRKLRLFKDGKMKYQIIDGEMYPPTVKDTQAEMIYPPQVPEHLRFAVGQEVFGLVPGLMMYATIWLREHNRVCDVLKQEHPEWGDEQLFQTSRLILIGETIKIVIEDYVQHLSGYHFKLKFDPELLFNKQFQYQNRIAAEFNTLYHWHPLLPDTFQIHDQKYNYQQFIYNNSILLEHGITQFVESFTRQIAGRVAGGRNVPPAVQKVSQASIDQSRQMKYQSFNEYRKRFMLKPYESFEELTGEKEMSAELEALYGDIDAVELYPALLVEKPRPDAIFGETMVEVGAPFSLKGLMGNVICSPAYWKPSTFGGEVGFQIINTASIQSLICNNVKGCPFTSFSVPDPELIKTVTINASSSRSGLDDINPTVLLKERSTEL
# Procedure: as §1, §2, §3, §4, §5, §6
structure (smiles),measurement,setting,value
"Cc1cc(Cc2ccc(=O)n(CCO)n2)n(C)c1C(=O)c1ccc(Cl)cc1 [Compound 118, 6-[5-(4-chloro-benzoyl)-1,4,-dimethyl-1H-pyrrol-2-ylmethyl]-2-(2-hydroxy-ethyl)-2H-pyridazin-3-one]",IC50,[1],76000 nM
same,IC50,[2],800 nM
"Cc1cc(Cc2ccc(=O)n(CC(N)=O)n2)n(C)c1C(=O)c1ccc(Cl)cc1 [Compound 120, 2-{3-[5-(4-chloro-benzoyl)-1,4,-dimethyl-1H-pyrrol-2-ylmethyl]-6-oxo-6H-pyridazin-1-yl}-acetamide]",IC50,[1],8900 nM
same,IC50,[2],800 nM
"Cc1cc(Cc2ccc(=O)n(Cc3ccccc3)n2)n(C)c1C(=O)c1ccc(Cl)cc1 [Compound 121, 2-benzyl-6-[5-(4-chloro-benzoyl)-1,4,-dimethyl-1H-pyrrol-2-ylmethyl]-2H-pyridazin-3-one]",IC50,[1],6300 nM
same,IC50,[2],230 nM
"Cc1cc(Cc2ccc(=O)n(CC#N)n2)n(C)c1C(=O)c1ccc(Cl)cc1 [Compound 122, 6-[5-(4-chloro-benzoyl)-1,4,-dimethyl-1H-pyrrol-2-ylmethyl]-2-(cyano-methyl)-2H-pyridazin-3-one]",IC50,[1],74 nM
same,IC50,[2],63 nM
"Cc1cc(Cc2ccc(=O)n(CCF)n2)n(C)c1C(=O)c1ccc(Cl)cc1 [Compound 123, 6-[5-(4-chloro-benzoyl)-1,4-dimethyl-1H-pyrrol-2-ylmethyl]-2-(2-fluoroethyl)-2H-pyridazin-3-one]",IC50,[1],3500 nM
same,IC50,[2],< 30 nM
"COCCn1nc(Cc2cc(C)c(C(=O)c3ccc(Cl)cc3)n2C)ccc1=O [Compound 124, 6-[5-(4-chloro-benzoyl)-1,4,-dimethyl-1H-pyrrol-2-ylmethyl]-2-(2-methoxy-ethyl)-2H-pyridazin-3-one]",IC50,[1],94000 nM
same,IC50,[2],540 nM
"CNC(=O)Cn1nc(Cc2cc(C)c(C(=O)c3ccc(Cl)cc3)n2C)ccc1=O [Compound 125, 2-{3-[5-(4-chloro-benzoyl)-1,4,-dimethyl-1H-pyrrol-2-ylmethyl]-6-oxo-6H-pyridazin-1-yl}--N-methyl acetamide]",IC50,[1],< 10000 nM
same,IC50,[2],1600 nM
"C#CCn1nc(Cc2cc(C)c(C(=O)c3ccc(Cl)cc3)n2C)ccc1=O [Compound 126, 6-[5-(4-chloro-benzoyl)-1,4-dimethyl-1H-pyrrol-2-ylmethyl]-2-prop-2-ynyl-2H-pyridazin-3-one]",IC50,[1],61400 nM
same,IC50,[2],970 nM
"C=CCn1nc(Cc2cc(C)c(C(=O)c3ccc(Cl)cc3)n2C)ccc1=O [Compound 127, 2-allyl-6-[5-(4-chloro-benzoyl)-1,4-dimethyl-1H-pyrrol-2-ylmethyl]-2H-pyridazin-3one]",IC50,[1],57000 nM
same,IC50,[2],670 nM
"Cc1cc(Cc2ccc(=O)n(Cc3ccc(F)cc3)n2)n(C)c1C(=O)c1ccc(Cl)cc1 [Compound 129, 6-[5-(4-chloro-benzoyl)-1,4,-dimethyl-1H-pyrrol-2-ylmethyl]-2-(4-fluorobenzyl)-2H-pyridazin-3-one]",IC50,[1],3400 nM
same,IC50,[2],67 nM
"Cc1ccc(C(=O)c2cc(Br)c(Cc3ccc(=O)[nH]n3)n2C)cc1 [Compound 130, 6-[3-bromo-1-methyl-5-(4-methyl-benzoyl)-1H-pyrrol-2-ylmethyl]-2H-pyridazin-3-one]",IC50,[1],> 100000 nM
same,IC50,[2],580 nM
"Cc1cc(Cc2ccc(=O)n(CCCl)n2)n(C)c1C(=O)c1ccc(Cl)cc1 [Compound 131, 6-[5-(4-chloro-benzoyl)-1,4-dimethyl-1H-pyrrol-2-ylmethyl]-2-(2-chloroethyl)-2H-pyridazin-3-one]",IC50,[1],5300 nM
same,IC50,[2],120 nM
"Cc1cc(Cc2ccc(=O)n(Cc3ccc(Cl)cc3)n2)n(C)c1C(=O)c1ccc(Cl)cc1 [Compound 133, 6-[5-(4-chloro-benzoyl)-1,4,-dimethyl-1H-pyrrol-2-ylmethyl]-2-(4-chlorobenzyl)-2H-pyridazin-3-one]",IC50,[1],3700 nM
same,IC50,[2],70 nM
"CC(=O)OCCn1nc(Cc2cc(C)c(C(=O)c3ccc(Cl)cc3)n2C)ccc1=O [Compound 135, acetic acid 2-{3-[5-(4-chloro-benzoyl)-1,4,-dimethyl-1H-pyrrol-2-ylmethyl]-6-oxo-6H-pyridazin-1-yl}ethyl ester]",IC50,[1],52000 nM
same,IC50,[2],350 nM
"Cc1cc(Cc2ccc(=O)n(CCNS(C)(=O)=O)n2)n(C)c1C(=O)c1ccc(Cl)cc1 [Compound 136, N-(2-{3-[5-(4-chloro-benzoyl)-1,4,-dimethyl-1H-pyrrol-2-ylmethyl]-6-oxo-6H-pyridazin-1-yl}-ethyl)-methanesulfonamide]",IC50,[1],829000 nM
same,IC50,[2],3060 nM
"Cc1cc(Cc2ccc(=O)n(CCCO)n2)n(C)c1C(=O)c1ccc(Cl)cc1 [Compound 140, 6-[5-(4-chloro-benzoyl)-1,4,-dimethyl-1H-pyrrol-2-ylmethyl]-2-(3-hydroxy-1-propyl)-2H-pyridazin-3-one]",IC50,[1],48000 nM
same,IC50,[2],530 nM
"Cc1cc(Cc2cc(C)c(=O)[nH]n2)n(C)c1C(=O)c1ccc(Cl)cc1 [Compound 141, 6-[5-(4-chloro-benzoyl)-1,4-dimethyl-1H-pyrrol-2-ylmethyl]-4-methyl-2H-pyridazin-3-one]",IC50,[1],4900 nM
same,IC50,[2],125 nM
"Cc1cc(Cc2ccc(=O)[nH]n2)n(C)c1C(=O)c1ccc(F)cc1 [Compound 142, 6-[1,4-dimethyl-5-(4-fluoro-benzoyl)-1H-pyrrol-2-ylmethyl]-2H-pyridazin-3-one]",IC50,[1],67000 nM
same,IC50,[2],4160 nM
"Cc1cc(Cc2ccc(=O)[nH]n2)n(C)c1C(=O)c1cccs1 [Compound 144, 6-[1,4-dimethyl-5-(thienyl-2-carbonyl)-1H-pyrrol-2-ylmethyl]-2H-pyridazin-3-one]",IC50,[1],1000 nM
same,IC50,[2],590 nM
"Cc1cc(Cc2ccc(=O)n(CCC#N)n2)n(C)c1C(=O)c1ccc(Cl)cc1 [Compound 145, 6-[5-(4-chloro-benzoyl)-1,4,-dimethyl-1H-pyrrol-2-ylmethyl]-2-(2-cyano-ethyl)-2H-pyridazin-3-one]",IC50,[1],85000 nM
same,IC50,[2],910 nM
"Cc1cccc(C)c1Cn1nc(Cc2cc(C)c(C(=O)c3ccc(Cl)cc3)n2C)ccc1=O [Compound 151, 6-[5-(4-chloro-benzoyl)-1,4,-dimethyl-1H-pyrrol-2-ylmethyl]-2-(2,6-dimethylbenzyl)-2H-pyridazin-3-one]",IC50,[1],3800 nM
same,IC50,[2],< 100 nM
"Cc1cc(Cc2ccc(=O)n(Cc3c(Cl)cccc3Cl)n2)n(C)c1C(=O)c1ccc(Cl)cc1 [Compound 152, 6-[5-(4-chloro-benzoyl)-1,4,-dimethyl-1H-pyrrol-2-ylmethyl]-2-(2,6-dichlorobenzyl)-2H-pyridazin-3-one]",IC50,[1],10000 nM
same,IC50,[2],140 nM
"Cc1cc(Cc2ccc(=O)n(CO)n2)n(C)c1C(=O)c1ccc(Cl)cc1 [Compound 153, 6-[5-(4-chloro-benzoyl)-1,4,-dimethyl-1H-pyrrol-2-ylmethyl]-2-(hydroxy-methyl)-2H-pyridazin-3-one]",IC50,[1],> 100000 nM
same,IC50,[2],540 nM
"CC[C@H](C)NC(=O)Cn1nc(Cc2cc(C)c(C(=O)c3ccc(Cl)cc3)n2C)ccc1=O [Compound 157, S--N-sec-butyl-2-{3-[5-(4-chloro-benzoyl)-1,4,-dimethyl-1H-pyrrol-2-ylmethyl]-6-oxo-6H-pyridazin-1-yl}-acetamide]",IC50,[1],24400 nM
same,IC50,[2],1630 nM
"CC[C@@H](C)NC(=O)Cn1nc(Cc2cc(C)c(C(=O)c3ccc(Cl)cc3)n2C)ccc1=O [Compound 158, R--N-sec-butyl-2-{3-[5-(4-chloro-benzoyl)-1,4,-dimethyl-1H-pyrrol-2-ylmethyl]-6-oxo-6H-pyridazin-1-yl}-acetamide]",IC50,[1],3200 nM
same,IC50,[2],680 nM
